The source of these data is patent US9113629B2, “4-amino-6-(4-substituted-phenyl)-picolinates and 6-amino-2-(4-substituted-phenyl)-pyrimidine-4-carboxylates and their use as herbicides” (DOW AGROSCIENCES LLC, priority 2013, dated 2015).

Molecules are shown by their SMILES. Like-named read-outs stand apart in the source and are kept apart here.

The test system of experiment [1] is APESV: bentgrass (Apera spica-venti). Nature of the experiment: Post-emergent Test III, herbicidal activity in wheat and barley. In kind it is in vivo. The settings on record: for pest or weed control at 35 g/ha / pest or weed control at 70 g/ha / pest or weed control at 140 g/ha: Apera spica-venti, post-emergence, 504 h, read-out: Visual Growth Reduction (%) 21 Days After Application APESV; for pest or weed control at 35 g/ha: 35 g ai/ha; for pest or weed control at 70 g/ha: 70 g ai/ha; for pest or weed control at 140 g/ha: 140 g ai/ha; for GR50 APESV / GR80 APESV: probit analysis. In a few lines:
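Plants at the second to third true-leaf stage, grown in a greenhouse at about 18/17 °C with a 14 h photoperiod, were sprayed post-emergence at 187 L/ha with the high rate and ½× to 1/16× serial dilutions in an acetone/DMSO/crop-oil/surfactant carrier. Injury was rated visually at 21 d on a 0–100% scale, and GR20–GR90 were derived by probit analysis.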

For experiment [2], the system named is test plant species in Direct Seeded Rice. Put plainly: Postemergence herbicidal activity in direct seeded rice (Table 13). In kind it is in vivo. Particulars: for pest or weed control at 35 g/ha / pest or weed control at 70 g/ha: post-emergence, 504 h; for pest or weed control at 35 g/ha: 35 g ai/ha; for pest or weed control at 70 g/ha: 70 g ai/ha. The procedure, abridged:
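Greenhouse-grown plants at the second or third true leaf stage were sprayed postemergence at 187 L/ha with compound in acetone/DMSO (final 16.2%/0.5%) plus aqueous Agri-dex crop oil concentrate; controls got solvent blank. Injury was rated visually 0–100% after 20-22 days, and GR20, GR50, GR80 and GR90 derived by probit analysis.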

The mark [3] stands for this setting: dose for growth reduction of 50 percent, 21 days after application.
Where [4] appears, read: dose for growth reduction of 80 percent, 21 days after application.
Setting [5] is: BRAPP: broadleaf signalgrass, Brachiaria platyphylla, probit analysis.
The mark [6] stands for this setting: CYPSS: sedge (Cyperus difformis, esculentus, iria), probit analysis.
The mark [7] stands for this setting: ECHSS: barnyardgrass (Echinochloa crus-galli), junglerice (Echinochloa colonum), probit analysis.
Where [8] appears, read: LEFSS: sprangletop (Leptochloa chinensis, Leptochloa dubia), probit analysis.
[9] abbreviates: SCPJU: Japanese bulrush, Scirpus juncoides, probit analysis.
Setting [10] is: SEBEX: hemp sesbania, Sesbania exaltata, probit analysis.
[11] abbreviates: BRAPP: broadleaf signalgrass, Brachiaria platyphylla, read-out: Visual Growth Reduction (%) 21 Days After Application BRAPP.
The mark [12] stands for this setting: CYPSS: sedge (Cyperus difformis, esculentus, iria), read-out: Visual Growth Reduction (%) 21 Days After Application CYPSS.
Setting [13] is: ECHSS: barnyardgrass (Echinochloa crus-galli), junglerice (Echinochloa colonum), read-out: Visual Growth Reduction (%) 21 Days After Application ECHSS.
Setting [14] is: LEFSS: sprangletop (Leptochloa chinensis, Leptochloa dubia), read-out: Visual Growth Reduction (%) 21 Days After Application LEFSS.
[15] abbreviates: ORYSS: Oryza sativa, read-out: Visual Growth Reduction (%) 21 Days After Application ORYSS.
Setting [16] is: SCPJU: Japanese bulrush, Scirpus juncoides, read-out: Visual Growth Reduction (%) 21 Days After Application SCPJU.
Where [17] appears, read: SEBEX: hemp sesbania, Sesbania exaltata, read-out: Visual Growth Reduction (%) 21 Days After Application SEBEX.
Where [18] appears, read: Table 9, dose for 50 percent growth reduction, 21 d.
Where [19] appears, read: Table 9, dose for 80 percent growth reduction, 21 d.

Regarding `Nc1c(F)c(-c2ccc(Cl)c(F)c2)nc(C(=O)O)c1Cl` [Compound 217], in experiment [1], the pest or weed control at 35 g/ha was in the range of 85 to 94%, the pest or weed control at 70 g/ha is 85 to 94% and the pest or weed control at 140 g/ha was in the range of 95 to 100%. Besides, the “GR50 APESV” value in experiment [1] (setting [3]) is listed as 6 g ai/ha. Further, the “GR80 APESV” value in experiment [1] (setting [4]) turned out to be 15 g ai/ha. In experiment [2] (setting [5]), the “GR50 BRAPP” value stood at 3 g ai/ha and the “GR80 BRAPP” value was determined as 5 g ai/ha. Moreover, in experiment [2] (setting [6]), the “GR50 CYPSS” value is given as 5 g ai/ha and the “GR80 CYPSS” value is 11 g ai/ha. Moreover, in experiment [2] (setting [7]), the “GR50 ECHSS” value came to 1 g ai/ha and the “GR80 ECHSS” value is 1 g ai/ha. For the same compound, in experiment [2] (setting [8]), the “GR50 LEFSS” value stood at 1 g ai/ha and the “GR80 LEFSS” value stood at 3 g ai/ha. Moreover, the “GR20 ORYSS” value in experiment [2] (ORYSS: Oryza sativa (crop), probit analysis) is given as 10 g ai/ha. In experiment [2] (setting [9]), the “GR50 SCPJU” value is 1 g ai/ha and the “GR80 SCPJU” value was determined as 1 g ai/ha. In experiment [2] (setting [10]), the “GR50 SEBEX” value is listed as 1 g ai/ha and the “GR80 SEBEX” value was 1 g ai/ha. Also, in experiment [2] (setting [11]), the pest or weed control at 35 g/ha was 95 to 100% and the pest or weed control at 70 g/ha is 95 to 100%. In addition, in experiment [2] (setting [12]), the pest or weed control at 35 g/ha was in the range of 95 to 100% and the pest or weed control at 70 g/ha is 95 to 100%. In experiment [2] (setting [13]), the pest or weed control at 35 g/ha was 95 to 100% and the pest or weed control at 70 g/ha lay in the range of 95 to 100%. Besides, in experiment [2] (setting [14]), the pest or weed control at 35 g/ha lay in the range of 95 to 100% and the pest or weed control at 70 g/ha was 95 to 100%. In addition, in experiment [2] (setting [15]), the pest or weed control at 35 g/ha was 45 to 59% and the pest or weed control at 70 g/ha was 75 to 84%. In experiment [2] (setting [16]), the pest or weed control at 35 g/ha was in the range of 95 to 100% and the pest or weed control at 70 g/ha lay in the range of 95 to 100%. Moreover, in experiment [2] (setting [17]), the pest or weed control at 35 g/ha was 95 to 100% and the pest or weed control at 70 g/ha is 95 to 100%.

Consider `Nc1cc(-c2ccc(Br)cc2)nc(C(=O)O)c1Cl` [Compound 168], for which, in experiment [1] (Table 9, post-emergent, 21 d), the pest or weed control at 35 g/ha fell in the range of 75 to 84% and the pest or weed control at 70 g/ha lay in the range of 85 to 94%. Also, the “GR50 APESV” value in experiment [1] (setting [18]) turned out to be 21 g ai/ha. In experiment [1] (setting [19]), the “GR80 APESV” value turned out to be 57 g ai/ha.

As to `COC(=O)c1nc(-c2ccc(Br)cc2F)nc(N)c1OC` [Compound 35], in experiment [1] (Table 9, post-emergent, 21 d), the pest or weed control at 35 g/ha was in the range of 0 to 29% and the pest or weed control at 70 g/ha is 30 to 44%. In experiment [1] (setting [18]), the “GR50 APESV” value came out at 113 g ai/ha. Also, the “GR80 APESV” value in experiment [1] (setting [19]) is listed as greater than 140 g ai/ha.

On to `C#Cc1ccc(-c2nc(N)c(OC)c(C(=O)O)n2)c(F)c1F` [Compound 154], for which, in experiment [1] (Table 9, post-emergent, 21 d), the pest or weed control at 35 g/ha is 0 to 29%, the pest or weed control at 70 g/ha was 0 to 29% and the pest or weed control at 140 g/ha was 0 to 29%. Besides, the “GR50 APESV” value in experiment [1] (setting [18]) is on record as greater than 140 g ai/ha. In addition, the “GR80 APESV” value in experiment [1] (setting [19]) was greater than 140 g ai/ha.

Regarding `COC(=O)c1nc(-c2ccc(F)c(F)c2F)c(F)c(N)c1Cl` [Compound 186], in experiment [1], the pest or weed control at 35 g/ha lay in the range of 0 to 29%, the pest or weed control at 70 g/ha fell in the range of 0 to 29% and the pest or weed control at 140 g/ha was in the range of 0 to 29%. The “GR50 APESV” value in experiment [1] (setting [3]) is on record as greater than 140 g ai/ha. Besides, the “GR80 APESV” value in experiment [1] (setting [4]) is given as greater than 140 g ai/ha.
